Target: collagenase
Experiment: Collagenase inhibition (analytical kit)
Format: biochemical
Settings: confidence interval in parentheses
Source text: Table 2 - Inhibitory effect (IC50) of the different extracts obtained based on the interval of concentrations tested on the enzymes collagenase and elastase.

Structure (SMILES): O=C(O[C@@H]1Cc2c(O)cc(O)cc2O[C@@H]1c1cc(O)c(O)c(O)c1)c1cc(O)c(O)c(O)c1 [Epigallocatechin gallate]
- IC50 Collagenase: 4.8 (4.10-5.50) µg/mL

Reference: patent EP3910064A1, “PROCESS OF OBTAINING A PHLOROTANNIN-ENRICHED EXTRACT HAVING ANTI-ENZYMATIC ACTION FOR USE IN DERMATOLOGY” (Instituto Politécnico De Leiria, priority 2020, dated 2021)
